According to patent US9833497B2, “Human originated EGF domain proteins and use of the same” (CHENGDU SOURCEBIO LIMITED-LIABILITY COMPANY, priority 2013, dated 2017):

Columns and labels:
Format in all cases: cell-based
Proteus vulgaris = assay: MIC against Gram-negative bacteria: Proteus vulgaris; conditions: 5×10^5 CFU/mL
Summary of the method: (§1)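 Broth microdilution, LB medium, final inoculum 5×10^5 CFU/mL from McFarland 0.5 cultures. Recombinant human EGF domain proteins tested in two-fold steps, n=3. MIC: lowest concentration, no growth.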

E. coli DH5α = assay: Antibacterial activity: MIC and growth curve against E. coli DH5α in 96-well plate; conditions: minimal inhibitory concentration against E. coli DH5α; 96-well plate, 5×10^5 CFU/mL, 37° C., judged after 8 h
Summary of the method: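 Log-phase DH5α (OD600 about 0.5, 37° C, 185 rpm in LB) was pelleted, resuspended in fresh LB and seeded at 5×10^5 CFU/mL with recombinant protein at 50, 25 and 12.5 μg/mL (two-fold series), in triplicate. Plates were shaken at 175 rpm, 37° C, and OD600 was read every 30 min. MIC was the lowest concentration with no growth.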

Proteus mirabilis = assay: MIC against Gram-negative bacteria: Proteus mirabilis; conditions: 5×10^5 CFU/mL
Summary of the method: as §1

Pseudomonas aeruginosa = assay: MIC against Gram-negative bacteria: Pseudomonas aeruginosa; conditions: 5×10^5 CFU/mL
Summary of the method: as §1

Citrobacter diversus = assay: MIC against Gram-negative bacteria: Citrobacter diversus; conditions: 5×10^5 CFU/mL
Summary of the method: as §1

E. coli BL21 = assay: MIC against Gram-negative bacteria: E. coli BL21; conditions: 5×10^5 CFU/mL
Summary of the method: as §1

Aeromonas hydrophila = assay: MIC against Gram-negative bacteria: Aeromonas hydrophila; conditions: 5×10^5 CFU/mL
Summary of the method: as §1

Klebsiella pneumonia = assay: MIC against Gram-negative bacteria: Klebsiella pneumonia; conditions: 5×10^5 CFU/mL
Summary of the method: as §1

Moraxella catarrhalis = assay: MIC against Gram-negative bacteria: Moraxella catarrhalis; conditions: 5×10^5 CFU/mL
Summary of the method: as §1

Enterobacter cloacae = assay: MIC against Gram-negative bacteria: Enterobacter cloacae; conditions: 5×10^5 CFU/mL
Summary of the method: as §1

Serratia marcescens = assay: MIC against Gram-negative bacteria: Serratia marcescens; conditions: 5×10^5 CFU/mL
Summary of the method: as §1

[1] = Proteus vulgaris, 96-well plate, 37° C., 10 h
[2] = Proteus mirabilis, 96-well plate, 37° C., 10 h
[3] = Pseudomonas aeruginosa, 96-well plate, 37° C., 10 h
[4] = Citrobacter diversus, 96-well plate, 37° C., 10 h
[5] = Aeromonas hydrophila, 96-well plate, 37° C., 10 h
[6] = Klebsiella pneumonia, 96-well plate, 37° C., 10 h
[7] = Moraxella catarrhalis, 96-well plate, 37° C., 10 h
[8] = Enterobacter cloacae, 96-well plate, 37° C., 10 h
[9] = Serratia marcescens, 96-well plate, 37° C., 10 h
[10] = P. vulgaris, 10 h cultivation at 37° C.
[11] = P. mirabilis, 10 h cultivation at 37° C.
[12] = P. aeruginosa, 10 h cultivation at 37° C.
[13] = C. diversus, 10 h cultivation at 37° C.
[14] = A. hydrophila, 10 h cultivation at 37° C.
[15] = K. pneumonia, 10 h cultivation at 37° C.
[16] = M. catarrhalis, 10 h cultivation at 37° C.
[17] = E. cloacae, 10 h cultivation at 37° C.
[18] = S. marcescens, 10 h cultivation at 37° C.

Substance	MIC against P. vulgaris (Proteus vulgaris; [1])	MIC (E. coli DH5α)	MIC against P. mirabilis (Proteus mirabilis; [2])	MIC against P. aeruginosa (Pseudomonas aeruginosa; [3])	MIC against C. diversus (Citrobacter diversus; [4])	MIC against E. coli BL21 (E. coli BL21; 96-well plate, 37° C., 10 h)	MIC against A. hydrophila (Aeromonas hydrophila; [5])	MIC against K. pneumonia (Klebsiella pneumonia; [6])	MIC against M. catarrhalis (Moraxella catarrhalis; [7])	MIC against E. cloacae (Enterobacter cloacae; [8])	MIC against S. marcescens (Serratia marcescens; [9])	MIC (μg/mL) P. vulgaris (Proteus vulgaris; [10])	MIC (μg/mL) P. mirabilis (Proteus mirabilis; [11])	MIC (μg/mL) P. aeruginosa (Pseudomonas aeruginosa; [12])	MIC (μg/mL) C. diversus (Citrobacter diversus; [13])	MIC (μg/mL) E. coli BL21 (E. coli BL21; 10 h cultivation at 37° C.)	MIC (μg/mL) A. hydrophila (Aeromonas hydrophila; [14])	MIC (μg/mL) K. pneumonia (Klebsiella pneumonia; [15])	MIC (μg/mL) M. catarrhalis (Moraxella catarrhalis; [16])	MIC (μg/mL) E. cloacae (Enterobacter cloacae; [17])	further results
PRT1310 (EINSCLIHHGGCHIHAECIPTGPQQVSCSCREGYSGDGIRTCE; listed as Homo sapiens)	12.5 µg/mL	12.5 µg/mL	25 µg/mL	12.5 µg/mL	25 µg/mL	50 µg/mL	12.5 µg/mL	25 µg/mL	50 µg/mL	50 µg/mL	25 µg/mL										
PRT597 (CDCNRAGTQKPICDPDTGMCRCREGVSGQRCDRCARGHSQEFPTCLQ; listed as Homo sapiens)		25 µg/mL																			MIC P. vulgaris (Proteus vulgaris; 96-well plate, 37° C., 10 h): 25 µg/mL; MIC P. mirabilis (Proteus mirabilis; 96-well plate, 37° C., 10 h): 50 µg/mL; MIC P. aeruginosa (Pseudomonas aeruginosa; 96-well plate, 37° C., 10 h): 50 µg/mL; MIC C. diversus (Citrobacter diversus; 96-well plate, 37° C., 10 h): 25 µg/mL; MIC E. coli BL21 (E. coli BL21; 96-well plate, 37° C., 10 h): 12.5 µg/mL; MIC A. hydrophila (Aeromonas hydrophila; 96-well plate, 37° C., 10 h): 50 µg/mL; MIC K. pneumonia (Klebsiella pneumonia; 96-well plate, 37° C., 10 h): 12.5 µg/mL; MIC M. catarrhalis (Moraxella catarrhalis; 96-well plate, 37° C., 10 h): 12.5 µg/mL; MIC E. cloacae (Enterobacter cloacae; 96-well plate, 37° C., 10 h): 25 µg/mL; MIC S. marcescens (Serratia marcescens; 96-well plate, 37° C., 10 h): 12.5 µg/mL
PRT81 (TCGPCNCDVSKGFDPDCNKTSGECHCKENHYRPPGSPTCL; listed as Homo sapiens)		12.5 µg/mL																			MIC (μg/mL) P. vulgaris (Proteus vulgaris; [1]): 25 µg/mL; MIC (μg/mL) P. mirabilis (Proteus mirabilis; [2]): 12.5 µg/mL; MIC (μg/mL) P. aeruginosa (Pseudomonas aeruginosa; [3]): 12.5 µg/mL; MIC (μg/mL) C. diversus (Citrobacter diversus; [4]): 12.5 µg/mL; MIC (μg/mL) E. coli BL21 (E. coli BL21; 96-well plate, 37° C., 10 h): 12.5 µg/mL; MIC (μg/mL) A. hydrophila (Aeromonas hydrophila; [5]): 25 µg/mL; MIC (μg/mL) K. pneumonia (Klebsiella pneumonia; [6]): 25 µg/mL; MIC (μg/mL) M. catarrhalis (Moraxella catarrhalis; [7]): 50 µg/mL; MIC (μg/mL) E. cloacae (Enterobacter cloacae; [8]): 12.5 µg/mL; MIC (μg/mL) S. marcescens (Serratia marcescens; [9]): 50 µg/mL
PRT4 (LDVTCNIKNGRCEQFCKNSADNKVVCSCTEGYRLAENQKSCE; listed as Homo sapiens)		25 µg/mL																			MIC (μg/mL) P. vulgaris (Proteus vulgaris; [1]): 50 µg/mL; MIC (μg/mL) P. mirabilis (Proteus mirabilis; [2]): 25 µg/mL; MIC (μg/mL) P. aeruginosa (Pseudomonas aeruginosa; [3]): 25 µg/mL; MIC (μg/mL) C. diversus (Citrobacter diversus; [4]): 12.5 µg/mL; MIC (μg/mL) E. coli BL21 (E. coli BL21; 96-well plate, 37° C., 10 h): 50 µg/mL; MIC (μg/mL) A. hydrophila (Aeromonas hydrophila; [5]): 25 µg/mL; MIC (μg/mL) K. pneumonia (Klebsiella pneumonia; [6]): 25 µg/mL; MIC (μg/mL) M. catarrhalis (Moraxella catarrhalis; [7]): 25 µg/mL; MIC (μg/mL) E. cloacae (Enterobacter cloacae; [8]): 12.5 µg/mL; MIC (μg/mL) S. marcescens (Serratia marcescens; [9]): 25 µg/mL
PRT866 (CQCHGHAARCAARARPPRCHCRHHTTGPGCESCRPSHRDWPWRPATPRHPHPCLP; listed as Homo sapiens)		25 µg/mL										25 µg/mL	12.5 µg/mL	25 µg/mL	12.5 µg/mL	12.5 µg/mL	12.5 µg/mL	12.5 µg/mL	12.5 µg/mL	12.5 µg/mL	MIC (μg/mL) S. marcescens (Serratia marcescens; [18]): 12.5 µg/mL
PRT778 (QNQSCPVNYCYNQGHCYISQTLGCQPMCTCPPAFTDSRCF; listed as Homo sapiens)		50 µg/mL										25 µg/mL	12.5 µg/mL	50 µg/mL	12.5 µg/mL	12.5 µg/mL	12.5 µg/mL	12.5 µg/mL	12.5 µg/mL	50 µg/mL	MIC (μg/mL) S. marcescens (Serratia marcescens; [18]): 12.5 µg/mL
PRT261 (CAHGHGGCSPHANCTKVAPGQRTCTCQDGYMGDGELC; listed as Homo sapiens)		12.5 µg/mL										12.5 µg/mL	25 µg/mL	12.5 µg/mL	25 µg/mL	12.5 µg/mL	12.5 µg/mL	12.5 µg/mL	50 µg/mL	50 µg/mL	MIC (μg/mL) S. marcescens (Serratia marcescens; [18]): 50 µg/mL
PRT1273 (DVDECEREDNAGCVHDCVNIPGNYRCTCYDGFHLAHDGHNCL; listed as Homo sapiens)	12.5 µg/mL	12.5 µg/mL	50 µg/mL	12.5 µg/mL	25 µg/mL	50 µg/mL	50 µg/mL	50 µg/mL	12.5 µg/mL	12.5 µg/mL	50 µg/mL										
PRT725 (VPNLCKQICSHLCLLRPGGYSCACPQGSSFIEGSTTECD; listed as Homo sapiens)		25 µg/mL																			MIC P. vulgaris (Proteus vulgaris; 96-well plate, 37° C., 10 h): 50 µg/mL; MIC P. mirabilis (Proteus mirabilis; 96-well plate, 37° C., 10 h): 12.5 µg/mL; MIC P. aeruginosa (Pseudomonas aeruginosa; 96-well plate, 37° C., 10 h): 25 µg/mL; MIC C. diversus (Citrobacter diversus; 96-well plate, 37° C., 10 h): 50 µg/mL; MIC E. coli BL21 (E. coli BL21; 96-well plate, 37° C., 10 h): 12.5 µg/mL; MIC A. hydrophila (Aeromonas hydrophila; 96-well plate, 37° C., 10 h): 25 µg/mL; MIC K. pneumonia (Klebsiella pneumonia; 96-well plate, 37° C., 10 h): 50 µg/mL; MIC M. catarrhalis (Moraxella catarrhalis; 96-well plate, 37° C., 10 h): 25 µg/mL; MIC E. cloacae (Enterobacter cloacae; 96-well plate, 37° C., 10 h): 12.5 µg/mL; MIC S. marcescens (Serratia marcescens; 96-well plate, 37° C., 10 h): 25 µg/mL
PRT1244 (CGSTCPTCVQGSCDTVTGDCVCSAGYWGPSCN; listed as Homo sapiens)	50 µg/mL	50 µg/mL	25 µg/mL	50 µg/mL	25 µg/mL	12.5 µg/mL	50 µg/mL	12.5 µg/mL	12.5 µg/mL	12.5 µg/mL	12.5 µg/mL										
